Assay results published in ChEMBL document CHEMBL6153133, “Discovery of Diphenyl Ether Derivatives as Novel BKCa Channel Activators: Structure-Activity Relationship, Cryo-EM Complex Structures, and In Vivo Animal Studies” (J Med Chem, 2025).
The source made the active and inactive calls. The calls are words filed in the database; no cut-off is given here.

Tests used:
[1] = Half-life in male Sprague-Dawley rat at 10 mg/kg, iv by LC-MS/MS analysis; assay type: ADME, organism-based; settings: in vivo
[2] = AUClast in male Sprague-Dawley rat at 10 mg/kg, iv by LC-MS/MS analysis; assay type: ADME, organism-based; settings: in vivo
[3] = Clearance in male Sprague-Dawley rat at 10 mg/kg, iv by LC-MS/MS analysis; assay type: ADME, organism-based; settings: in vivo
[4] = Volume of distribution at steady state in male Sprague-Dawley rat at 10 mg/kg, iv by LC-MS/MS analysis; assay type: ADME, organism-based; settings: in vivo, read-out: Vdss
[5] = Cmax in male Sprague-Dawley rat at 10 mg/kg, po by LC-MS/MS analysis; assay type: ADME, organism-based; settings: in vivo
[6] = Tmax in male Sprague-Dawley rat at 10 mg/kg, po by LC-MS/MS analysis; assay type: ADME, organism-based; settings: in vivo
[7] = Half-life in male Sprague-Dawley rat at 10 mg/kg, po by LC-MS/MS analysis; assay type: ADME, organism-based; settings: in vivo
[8] = AUClast in male Sprague-Dawley rat at 10 mg/kg, po by LC-MS/MS analysis; assay type: ADME, organism-based; settings: in vivo
[9] = Oral bioavailability in male Sprague-Dawley rat at 10 mg/kg by LC-MS/MS analysis; assay type: ADME, organism-based; settings: in vivo
[10] = system: Calcium-activated potassium channel subunit alpha-1 (Homo sapiens), Q12791 [UNDEFINED MUTATION]; assay: (§1) Activation of hyperactive human BKca channel G803D/N806K mutant transfected in human AD-293 cells assessed as maximum relative fluorescence value at 5 uM preincubated for 15 mins followed by Tl+ stimulus buffer addition and measured after 80 sec by Flexstation3 multimode microplate reader analysis relative to control; assay type: cell-based; settings: time 980.0 sec
[11] = system: Calcium-activated potassium channel subunit alpha-1 (Homo sapiens), Q12791 [UNDEFINED MUTATION]; assay: (§2) Activation of hyperactive human BKca channel G803D/N806K mutant transfected in human AD-293 cells incubated for 15 mins by Flexstation3 multimode microplate reader analysis; assay type: cell-based
[12] = molecular target: Calcium-activated potassium channel subunit alpha-1 (Homo sapiens, UniProt Q12791, G803D/N806K); assay: as §2; assay type: cell-based
[13] = system: Calcium-activated potassium channel subunit alpha-1 (Homo sapiens), Q12791 [UNDEFINED MUTATION]; assay: as §1, with “assessed as fold change in maximum relative” for “assessed as maximum relative”, “relative to 4-chloro-7-(trifluoromethyl)-10H-benzofuro[3,2-b]indole-1-carboxylic acid” for “relative to control”; assay type: cell-based; settings: filed as opener, time 980.0 sec
Oocyte = assay: Activation of rat BKca channel extracted from Xenopus laevis Oocytes assessed as left shift in G-V curve at 5 uM by patch-clamp electrophysiology recordings; assay type: cell-based; settings: filed as opener
[14] = system: Calcium-activated potassium channel subunit alpha-1 (Homo sapiens), Q12791 [UNDEFINED MUTATION]; assay: as §1, with “assessed as fold change in maximum relative” for “assessed as maximum relative”, “reader analysis” for “reader analysis relative to control”; assay type: cell-based; settings: filed as opener, time 980.0 sec
[15] = system: Calcium-activated potassium channel subunit alpha-1 (Homo sapiens), Q12791 [UNDEFINED MUTATION]; assay: as §1, with “at 1” for “at 5”; assay type: cell-based; settings: time 980.0 sec
[16] = Metabolic stability in rat liver microsomes assessed as parent compound remaining at 1 uM preincubated for 5 mins followed by NADPH addition and measured after 30 mins by LC-MS/MS analysis; assay type: ADME, Microsome; settings: read-out: Stability
[17] = Metabolic stability in human liver microsomes assessed as parent compound remaining at 1 uM preincubated for 5 mins followed by NADPH addition and measured after 30 mins by LC-MS/MS analysis; assay type: ADME, Microsome; settings: read-out: Stability
[18] = Metabolic stability in rat liver microsomes assessed as parent compound remaining at 1 uM preincubated for 15 mins followed by UDPGA addition and measured after 60 mins by LC-MS/MS analysis; assay type: ADME, Microsome; settings: time 75 min, read-out: Stability
[19] = Metabolic stability in human liver microsomes assessed as parent compound remaining at 1 uM preincubated for 15 mins followed by UDPGA addition and measured after 60 mins by LC-MS/MS analysis; assay type: ADME, Microsome; settings: time 75 min, read-out: Stability
[20] = Permeability of compound at pH 7.4 measured after 4 hrs by GIT-PAMPA assay; assay type: ADME; settings: read-out: permeability
[21] = Toxicity in male spontaneous hypertensive rat model at 100 mg/kg, po; assay type: organism-based; settings: in vivo
Rattus norvegicus [22] = assay: Reversal of urinary incontinence in male spontaneous hypertensive rat model assessed as decrease in urine frequency at 100 mg/kg, po measured after 3 hrs relative to control; assay type: functional; design: scale not given: the % may be the effect or the level left
Rattus norvegicus [23] = assay: Reversal of urinary incontinence in male spontaneous hypertensive rat model assessed as decrease in urine volume at 100 mg/kg, po measured after 3 hrs relative to control; assay type: functional; design: scale not given: the % may be the effect or the level left

Sequence of Calcium-activated potassium channel subunit alpha-1 (Homo sapiens), Q12791 [UNDEFINED MUTATION] (Q12791 whole entry, looked up, stated change not applied): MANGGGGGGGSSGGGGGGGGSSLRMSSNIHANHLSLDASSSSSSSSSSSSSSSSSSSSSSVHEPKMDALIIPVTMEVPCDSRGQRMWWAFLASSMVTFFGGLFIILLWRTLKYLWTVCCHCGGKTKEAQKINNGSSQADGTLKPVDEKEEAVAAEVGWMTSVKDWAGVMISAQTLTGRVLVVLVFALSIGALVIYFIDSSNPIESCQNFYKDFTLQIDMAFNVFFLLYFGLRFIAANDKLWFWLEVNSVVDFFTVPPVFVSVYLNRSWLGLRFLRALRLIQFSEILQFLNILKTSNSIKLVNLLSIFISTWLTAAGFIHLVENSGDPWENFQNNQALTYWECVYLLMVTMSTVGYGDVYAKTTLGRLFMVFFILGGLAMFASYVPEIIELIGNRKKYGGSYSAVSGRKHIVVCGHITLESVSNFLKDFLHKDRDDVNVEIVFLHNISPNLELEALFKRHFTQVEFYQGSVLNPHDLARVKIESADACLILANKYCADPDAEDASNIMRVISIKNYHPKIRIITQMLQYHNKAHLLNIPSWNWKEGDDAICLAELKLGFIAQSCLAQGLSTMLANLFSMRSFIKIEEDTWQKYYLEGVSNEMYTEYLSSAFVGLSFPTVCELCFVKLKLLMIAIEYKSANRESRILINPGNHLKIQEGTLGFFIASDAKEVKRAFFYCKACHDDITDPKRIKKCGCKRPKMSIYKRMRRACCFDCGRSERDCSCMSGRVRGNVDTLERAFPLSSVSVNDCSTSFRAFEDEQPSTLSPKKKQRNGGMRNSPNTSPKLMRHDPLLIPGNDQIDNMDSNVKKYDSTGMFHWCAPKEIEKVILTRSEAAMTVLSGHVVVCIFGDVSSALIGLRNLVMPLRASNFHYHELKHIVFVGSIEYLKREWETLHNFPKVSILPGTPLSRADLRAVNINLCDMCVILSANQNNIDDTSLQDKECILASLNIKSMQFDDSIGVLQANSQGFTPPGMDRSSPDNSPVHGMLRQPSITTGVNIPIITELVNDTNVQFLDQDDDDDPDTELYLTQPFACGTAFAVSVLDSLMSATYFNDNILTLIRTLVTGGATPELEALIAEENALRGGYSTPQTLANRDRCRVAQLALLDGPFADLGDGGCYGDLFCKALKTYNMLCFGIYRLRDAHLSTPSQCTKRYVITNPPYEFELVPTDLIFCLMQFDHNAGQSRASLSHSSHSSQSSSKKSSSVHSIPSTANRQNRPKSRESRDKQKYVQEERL
Sequence of Calcium-activated potassium channel subunit alpha-1 (Q12791 whole entry, looked up, stated change not applied): as above

Question: With `COc1cc(N)ccc1Oc1c(F)c(F)c(C(F)(F)F)c(F)c1F.Cl` as the compound, how does the half-life [1] read?
Answer: 2.1 h

Question: And the AUC(0-t) [2]?
Answer: 6260 ng·h/mL

Question: And the clearance [3]?
Answer: 25 mL/min/kg

Question: And the Vd [4]?
Answer: 3.5 L/kg

Question: And the Cmax [5]?
Answer: 182 ng/mL

Question: What about the Tmax [6] of the same compound?
Answer: 1.2 h

Question: And the half-life [7]?
Answer: 6.4 h

Question: What about the AUC(0-t) [8] of the same compound?
Answer: 668 ng·h/mL

Question: And the bioavailability [9]?
Answer: 9.9%

Question: For `Nc1ccc(Oc2c(F)c(F)c(C(F)(F)F)c(F)c2F)c(C(F)(F)F)c1`, which Activity [10] is on record?
Answer: 38%

Question: Which Activity [11] does the source give for `Oc1c(F)c(F)c(Cl)c(F)c1F` here?
Answer: inactive

Question: For `Oc1cccc(Oc2c(F)c(F)c(Cl)c(F)c2F)c1`, which Activity [10] is on record?
Answer: 5%

Question: Which Activity [10] does the source give for `Oc1ccc(Oc2ccc(Cl)c(F)c2)c(O)c1` here?
Answer: 8.1%

Question: Which Activity ([10]; filed as opener) does the source give for `Oc1ccc(Oc2c(F)c(F)c(Cl)c(F)c2F)c(O)c1` here?
Answer: 100%

Question: What about the EC50 [12] of the same compound?
Answer: 1.58 µM

Question: What about the fold change (FC) [13] of the same compound?
Answer: 2.5

Question: And the Activity (Oocyte)?
Answer: Active

Question: And the fold change (FC) [14]?
Answer: 9.7

Question: And the Activity ([15]; filed as opener)?
Answer: 41.6%

Question: And the remaining at 0.5 h, 1 µM [16]?
Answer: 35.9%

Question: And the remaining at 0.5 h, 1 µM [17]?
Answer: 83.6%

Question: Which Activity [10] does the source give for `Oc1ccccc1Oc1c(F)c(F)c(Cl)c(F)c1F` here?
Answer: -2.7%

Question: Which Activity ([10]; filed as opener) does the source give for `Oc1ccc(Oc2ccc(Cl)c(C(F)(F)F)c2)c(O)c1` here?
Answer: 74.7%

Question: Which results are given for `COc1cc(N)ccc1Oc1c(F)c(F)c(C(F)(F)F)c(F)c1F`?
Answer: EC50 [12]: 1.21 µM; remaining at 0.5 h, 1 µM [16]: 7.2%; remaining at 0.5 h, 1 µM [17]: 87.1%; remaining at 1 h, 1 µM [18]: 88.8%; remaining at 1 h, 1 µM [19]: 30%; Papp at 4 h [20]: 73.6 ×10⁻⁶ cm/s

Question: With `NCCCCNc1ccc(Oc2c(F)c(F)c(C(F)(F)F)c(F)c2F)c(O)c1` as the compound, how does the Activity [10] read?
Answer: 18%

Question: For `Oc1ccc(Oc2c(F)c(F)c(C(F)(F)F)c(F)c2F)c(O)c1`, which Activity ([10]; filed as opener) is on record?
Answer: 102%

Question: What about the EC50 [12] of the same compound?
Answer: 0.68 µM

Question: What about the Activity ([15]; filed as opener) of the same compound?
Answer: 81.3%

Question: With `Oc1ccc(Oc2c(F)cc(C(F)(F)F)cc2F)c(O)c1` as the compound, how does the Activity ([10]; filed as opener) read?
Answer: 66.9%

Question: Which Activity [11] does the source give for `COc1ccc(Oc2c(F)c(F)c(Cl)c(F)c2F)c(O)c1` here?
Answer: inactive

Question: With `NCCNc1ccc(Oc2c(F)c(F)c(C(F)(F)F)c(F)c2F)c(O)c1` as the compound, how does the Activity [10] read?
Answer: 3.3%

Question: With `Oc1ccc(Oc2cc(C(F)(F)F)cc(C(F)(F)F)c2)c(O)c1` as the compound, how does the Activity ([10]; filed as opener) read?
Answer: 99.3%

Question: What about the Activity [15] of the same compound?
Answer: 23.7%

Question: With `Oc1ccc(Oc2ccc(F)c(C(F)(F)F)c2)c(O)c1` as the compound, how does the Activity [10] read?
Answer: 19.8%

Question: With `Nc1ccc(Oc2c(F)c(F)c(C(F)(F)F)c(F)c2F)cc1` as the compound, how does the Activity ([10]; filed as opener) read?
Answer: 86.8%

Question: And the Activity [15]?
Answer: 18.1%

Question: What about the remaining at 0.5 h, 1 µM [16] of the same compound?
Answer: 18.6%

Question: And the remaining at 0.5 h, 1 µM [17]?
Answer: 7.4%

Question: With `Oc1cc(NCCCCN2CCOCC2)ccc1Oc1c(F)c(F)c(C(F)(F)F)c(F)c1F` as the compound, how does the EC50 [12] read?
Answer: 9.22 µM

Question: And the remaining at 0.5 h, 1 µM [16]?
Answer: 62.5%

Question: What about the remaining at 0.5 h, 1 µM [17] of the same compound?
Answer: 91.2%

Question: For `COc1ccc(Oc2c(F)c(F)c(Cl)c(F)c2F)c(OC)c1`, which Activity [11] is on record?
Answer: inactive

Question: Which Activity ([10]; filed as opener) does the source give for `CCNc1ccc(Oc2c(F)c(F)c(C(F)(F)F)c(F)c2F)c(O)c1` here?
Answer: 65.7%

Question: For `Fc1c(F)c(C(F)(F)F)c(F)c(F)c1Oc1ccc2[nH]cnc2c1`, which Activity [10] is on record?
Answer: 1%

Question: For `Nc1ccc(Oc2c(F)c(F)c(C(F)(F)F)c(F)c2F)c(OC(F)(F)F)c1`, which Activity [10] is on record?
Answer: 33%

Question: Which Activity [10] does the source give for `Oc1ccc(Oc2ccc(Cl)c(Cl)c2)c(O)c1` here?
Answer: 18.6%

Question: What does the source list for `Cl.Cl.Oc1cc(NCCCCN2CCOCC2)ccc1Oc1c(F)c(F)c(C(F)(F)F)c(F)c1F`?
Answer: Cmax [5]: 72.1 ng/mL; Tmax [6]: 0.7 h; half-life [7]: 3.7 h; AUC(0-t) [8]: 223 ng·h/mL; Activity [21]: Non-toxic; Activity (Rattus norvegicus [22]): 43.2%; Activity (Rattus norvegicus [23]): 49.2%

Question: With `Fc1c(F)c(C(F)(F)F)c(F)c(F)c1Oc1ccc2[nH]ccc2c1` as the compound, how does the Activity [10] read?
Answer: 1%

Question: Which Activity [10] does the source give for `Fc1c(F)c(C(F)(F)F)c(F)c(F)c1Oc1ccc2[nH]ncc2c1` here?
Answer: 1%

Question: Which Activity [11] does the source give for `Nc1ccc(Oc2c(F)c(F)c(C(F)(F)F)c(F)c2F)cn1` here?
Answer: inactive

Question: For `Oc1ccc(Oc2c(F)c(F)c(Cl)c(F)c2F)cc1`, which Activity [10] is on record?
Answer: 6.1%
